Reference: patent US20130302282A1, “Inhibitors of Hepatitis C Virus” (priority 2010, published 2013)
Read-outs that look alike come from different tables or passages of the source.

How the values were obtained:
[1] = tested on: 1b_Huh-Luc/Neo-ET cell line (bicistronic genotype 1b replicon in Huh 7 cells); experiment: HCV 1b replicon assay, luciferase readout; format: cell-based, HCV genotype 1b; settings: Hepatitis C virus
Method in brief: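 Huh 7 cells persistently carrying a bicistronic genotype 1b luciferase replicon, treated with compound in triplicate the day after plating and incubated 72 h. Luciferase activity measured by Bright-Glo and expressed as percent of untreated control; EC50 from four-parameter fit, repeated several times.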

HCV NS5B C316Y mutant = target: T1, HCV NS5B C316Y mutant (Hepatitis C virus genotype 1b, UniProt Q9WMX2, C2735Y); experiment: Activity against HCV NS5B C316Y mutant; format: cell-based; settings: for Inhibition of HCV N55B C316Y mutant: class symbol
T1 construct: HCV NS5B C316Y or S365A mutant as indicated; expressed in transfected cells
Method: (§1) The biological activity against HCV 1b, 1a, or 2a is indicated as being *, **, ***, or ****, which corresponds to EC50 ranges of EC50>1000 nM, 100 nM<EC50≦1000 nM, 10 nM<EC50≦100 nM, or EC50≦10 nM, respectively. The biological activity against HCV NS5B C316Y or S365A mutant is indicated as being […], which corresponds to EC50 ranges of EC50>1000 nM, 200 nM<EC50≦1000 nM, […], respectively.

HCV NS5B S365A mutant = target: T2, HCV NS5B S365A mutant (Hepatitis C virus genotype 1b, UniProt Q9WMX2, S2784A); experiment: Activity against HCV NS5B S365A mutant; format: cell-based; settings: for Inhibition of HCV NS5B S3865A mutant: class symbol
T2 construct: HCV NS5B C316Y or S365A mutant as indicated; expressed in transfected cells
Method: as §1

[2] = Huh-7, 1b_Huh-Luc/Neo-ET cell line, read-out: EC50, half-maximal inhibition of HCV 1b replication
[3] = Huh-7, class symbol, HCV genotype 1b replicon, read-out: Inhibition of HCV genotype 1b replicon
[4] = Huh-7, numeric value, HCV genotype 1b replicon, read-out: Inhibition of HCV genotype 1b replicon (EC50)

T1 sequence (Q9WMX2 2420-3010 C2735Y): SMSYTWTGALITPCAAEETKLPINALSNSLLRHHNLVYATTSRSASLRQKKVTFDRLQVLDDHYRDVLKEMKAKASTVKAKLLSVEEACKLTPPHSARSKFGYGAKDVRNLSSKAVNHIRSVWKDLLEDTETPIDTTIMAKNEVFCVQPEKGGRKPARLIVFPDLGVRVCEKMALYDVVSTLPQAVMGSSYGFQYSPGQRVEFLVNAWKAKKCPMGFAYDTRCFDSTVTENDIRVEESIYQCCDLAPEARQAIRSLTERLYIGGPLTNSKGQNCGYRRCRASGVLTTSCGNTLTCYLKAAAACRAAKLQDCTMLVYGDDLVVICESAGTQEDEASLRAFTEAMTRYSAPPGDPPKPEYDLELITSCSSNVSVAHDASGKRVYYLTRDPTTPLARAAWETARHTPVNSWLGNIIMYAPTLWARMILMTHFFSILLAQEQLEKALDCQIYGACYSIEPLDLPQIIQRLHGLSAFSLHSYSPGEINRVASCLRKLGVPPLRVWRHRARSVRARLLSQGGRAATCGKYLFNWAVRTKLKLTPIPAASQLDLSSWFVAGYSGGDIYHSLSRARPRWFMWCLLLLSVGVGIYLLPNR
T2 sequence (Q9WMX2 2420-3010 S2784A): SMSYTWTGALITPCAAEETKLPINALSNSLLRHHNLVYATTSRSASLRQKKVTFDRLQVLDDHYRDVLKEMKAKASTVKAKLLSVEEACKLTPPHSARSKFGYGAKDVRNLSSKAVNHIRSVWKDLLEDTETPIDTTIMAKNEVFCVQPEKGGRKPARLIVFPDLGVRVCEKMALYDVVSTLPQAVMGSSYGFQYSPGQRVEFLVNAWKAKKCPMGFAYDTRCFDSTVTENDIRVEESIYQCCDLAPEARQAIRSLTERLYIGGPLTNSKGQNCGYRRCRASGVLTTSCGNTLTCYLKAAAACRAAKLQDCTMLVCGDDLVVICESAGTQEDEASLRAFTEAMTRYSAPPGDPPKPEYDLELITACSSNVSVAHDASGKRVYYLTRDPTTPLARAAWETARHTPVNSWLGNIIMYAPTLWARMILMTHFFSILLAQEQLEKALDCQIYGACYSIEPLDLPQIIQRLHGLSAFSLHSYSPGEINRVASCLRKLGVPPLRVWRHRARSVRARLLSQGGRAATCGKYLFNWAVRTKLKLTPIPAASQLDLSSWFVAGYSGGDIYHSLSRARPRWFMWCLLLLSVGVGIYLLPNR

## CNC(=O)c1c(-c2ccc(F)cc2)oc2cc3c(cc12)[C@@H]1C[C@@H]1CCN3S(C)(=O)=O (single isomer, unassigned) [Compound B132]
[1]; [2]
  EC50: ≤ 10 nM
[1]; [3]
  EC50: < 10 nM
HCV NS5B C316Y mutant
  Inhibition of HCV N55B C316Y mutant: †††
HCV NS5B S365A mutant
  Inhibition of HCV NS5B S3865A mutant: †††

## CNC(=O)c1c(-c2ccc(F)cc2)oc2cc3c(cc12)C(C)N(CCS(C)(=O)=O)CCN3S(C)(=O)=O (centres unmarked) [Compound B156]
[1]; [2]
  EC50: 10 to 100 nM
[1]; [3]
  EC50: 10 to 100 nM
HCV NS5B C316Y mutant
  Inhibition of HCV N55B C316Y mutant: †††
HCV NS5B S365A mutant
  Inhibition of HCV NS5B S3865A mutant: †††

## CNC(=O)c1c(-c2ccc(Oc3ccc(F)cc3)cc2)oc2cc3c(cc12)[C@H](C)OC1(CC1)CN3S(C)(=O)=O (single isomer, unassigned) [Compound B187]
[1]; [2]
  EC50: ≤ 10 nM
[1]; [3]
  EC50: < 10 nM
HCV NS5B C316Y mutant
  EC50: > 1000 nM
HCV NS5B S365A mutant
  EC50: > 1000 nM

## CNC(=O)c1c(-c2ccc(Oc3ccc(F)cc3)cc2)oc2cc3c(cc12)[C@H](C)O[C@H](CS(C)(=O)=O)CN3S(C)(=O)=O [Compound B207]
[1]; [3]
  EC50: < 10 nM
HCV NS5B C316Y mutant
  Inhibition of HCV N55B C316Y mutant: †††
HCV NS5B S365A mutant
  Inhibition of HCV NS5B S3865A mutant: †††

## CNC(=O)c1c(-c2ccc(Oc3ccc(F)cc3)cc2)oc2cc3c(cc12)[C@H](C)OC(C)(C)CN3S(C)(=O)=O (single isomer, unassigned) [Compound B176]
[1]; [2]
  EC50: 10 to 100 nM
[1]; [4]
  EC50: 13.6 nM
HCV NS5B C316Y mutant
  EC50: 200 to 1000 nM
HCV NS5B S365A mutant
  EC50: 200 to 1000 nM

## CNC(=O)c1c(-c2ccc(F)cc2)oc2cc3c(cc12)C(C)N(CCO)CCN3S(C)(=O)=O (centres unmarked) [Compound B145]
[1]; [2]
  EC50: ≤ 10 nM
[1]; [3]
  EC50: < 10 nM
HCV NS5B C316Y mutant
  Inhibition of HCV N55B C316Y mutant: †††
HCV NS5B S365A mutant
  EC50: 200 to 1000 nM

## CNC(=O)c1c(-c2ccc(Oc3ccc(F)cc3)cc2)oc2cc3c(cc12)[C@H](C)OCCN3S(C)(=O)=O [Compound B118]
[1]; [2]
  EC50: ≤ 10 nM
[1]; [4]
  EC50: 3.1 nM
HCV NS5B C316Y mutant
  Inhibition of HCV N55B C316Y mutant: †††
HCV NS5B S365A mutant
  Inhibition of HCV NS5B S3865A mutant: †††

## CC1OCCN(S(C)(=O)=O)c2cc3oc(-c4ccc(F)cc4)c(-c4ncc[nH]4)c3cc21 (centres unmarked) [Compound B197]
[1]; [2]
  EC50: ≤ 10 nM
[1]; [3]
  EC50: < 10 nM
HCV NS5B C316Y mutant
  Inhibition of HCV N55B C316Y mutant: †††
HCV NS5B S365A mutant
  EC50: 200 to 1000 nM

## CNC(=O)c1c(-c2ccc(F)cc2)oc2cc3c(cc12)[C@H](C)NC(=O)CN3S(C)(=O)=O (single isomer, unassigned) [Compound B208]
[1]; [2]
  EC50: ≤ 10 nM
[1]; [3]
  EC50: < 10 nM
HCV NS5B C316Y mutant
  Inhibition of HCV N55B C316Y mutant: †††
HCV NS5B S365A mutant
  Inhibition of HCV NS5B S3865A mutant: †††

## CS(=O)(=O)N1CCCCc2cc3c(-c4ncc[nH]4)c(-c4ccc(F)cc4)oc3cc21 [Compound B67]
[1]; [2]
  EC50: ≤ 10 nM
[1]; [4]
  EC50: 5.2 nM
HCV NS5B C316Y mutant
  Inhibition of HCV N55B C316Y mutant: †††
HCV NS5B S365A mutant
  EC50: 200 to 1000 nM

## CNC(=O)c1c(-c2ccc(F)cc2)oc2cc3c(cc12)[C@H](C)OC(C)(C)CN3S(C)(=O)=O (single isomer, unassigned) [Compound B184]
[1]; [2]
  EC50: 10 to 100 nM
[1]; [4]
  EC50: 16.5 nM
HCV NS5B C316Y mutant
  EC50: > 1000 nM
HCV NS5B S365A mutant
  EC50: 200 to 1000 nM

## CNC(=O)c1c(-c2ccc(F)cc2)oc2cc3c(cc12)[C@H](C)O[C@H](CO)CN3S(C)(=O)=O [Compound B212]
[1]; [2]
  EC50: ≤ 10 nM
[1]; [3]
  EC50: < 10 nM
HCV NS5B C316Y mutant
  Inhibition of HCV N55B C316Y mutant: †††
HCV NS5B S365A mutant
  Inhibition of HCV NS5B S3865A mutant: †††

## CNC(=O)c1c(-c2ccc(F)cc2)oc2cc3c(cc12)[C@H](C)n1nncc1CN3S(C)(=O)=O (single isomer, unassigned) [Compound B169]
[1]; [2]
  EC50: ≤ 10 nM
[1]; [3]
  EC50: < 10 nM
HCV NS5B C316Y mutant
  Inhibition of HCV N55B C316Y mutant: †††
HCV NS5B S365A mutant
  Inhibition of HCV NS5B S3865A mutant: †††

## CNC(=O)c1c(-c2ccc(Oc3ccc(F)cc3)cc2)oc2cc3c(cc12)[C@H](C)O[C@H](CO)CN3S(C)(=O)=O [Compound B232]
[1]; [2]
  EC50: ≤ 10 nM
[1]; [3]
  EC50: < 10 nM
HCV NS5B C316Y mutant
  Inhibition of HCV N55B C316Y mutant: †††
HCV NS5B S365A mutant
  Inhibition of HCV NS5B S3865A mutant: †††

## CNC(=O)c1c(-c2ccc(Oc3ccc(F)cc3)cc2)oc2cc3c(cc12)[C@H](C)CCCN3S(C)(=O)=O (single isomer, unassigned) [Compound B85]
[1]; [2]
  EC50: ≤ 10 nM
[1]; [4]
  EC50: 3 nM
HCV NS5B C316Y mutant
  Inhibition of HCV N55B C316Y mutant: †††
HCV NS5B S365A mutant
  Inhibition of HCV NS5B S3865A mutant: †††
